Experiments:
[1] = Assay by HPLC (corrected for water content); type: physicochemical
Experimental: (§1) Total related substances was determined by HPLC using a Waters Acquity H-Class UPLC instrument utilizing a Waters Acquity BEH C18, 2.1×50 mm, 1.7 μm column. Sample solutions of each ASD were prepared by accurately weighing ASD powder into a volumetric flask, and diluted in 1:1:1 methanol:ethanol:water. The final concentration of the analyte (cabozantinib) in the sample was approximately 0.2 mg/ml.
(§2) Assay values and total related substances were determined for the ASDs after preparation (t=0) and at the designated stability timepoints using an appropriate HPLC method (as described in Example 1). The reported assay values have been corrected for water content (determined by Karl Fischer coulometric titration method).

[2] = Total related substances by HPLC; type: physicochemical
Experimental: as §1
Individual related substances were calculated as peak area percent. Total related substances is calculated as the sum of all detected individual related substances.
as §2

[3] = cited from earlier work
[4] = tested on: MET, VEGFR-1, -2 and -3, AXL, RET, ROS1, TYRO3, MER, KIT, TRKB, FLT-3, and TIE-2; conditions: FLT-3, TIE-2; cited from earlier work
[5] = Water content by Karl Fischer coulometric titration; type: physicochemical; conditions: after preparation
Experimental: Water content was determined by Karl Fischer coulometric titration method, using a Mettler Toledo C30S Karl Fischer with Stromboli Oven Sampler. Approximately 40-50 mg of ASD powder was weighed into a glass Stromboli sample vial and the vial was immediately sealed with a foil coated vial cover, and a rubber vial cap cover was placed on top of the sample vial. The vial was then placed onto instrument and analysis was conducted using nitrogen carrier gas. Instrument details and measurement conditions are specified in Table 4.

[6] = cited from earlier work; remark: listed apart in the source

SMILES | Assay ([1]; 40° C./protected, 1 month) [%] | Assay ([1]; 40° C./protected, 2 months) [%] | Assay ([1]; 40° C./protected, 3 months) [%] | Assay ([1]; t = 0) [%] | Total Related Substances ([2]; 40° C./protected, 1 month) [%] | Total Related Substances ([2]; 40° C./protected, 2 months) [%] | Total Related Substances ([2]; 40° C./protected, 3 months) [%] | Total Related Substances (% Area) ([2]; after preparation) | Total Related Substances ([2]; t = 0) [%] | protein bound in human plasma [3] [%] | inhibition of tyrosine kinase activity [4] | Water Content (% water) [5] [% water] | solubility in aqueous media [6]
COc1cc2nccc(Oc3ccc(NC(=O)C4(C(=O)Nc5ccc(F)cc5)CC4)cc3)c2cc1OC.O=C(O)C[C@H](O)C(=O)O [Cabozantinib (free base), N-(4-(6,7-dimethoxyquinolin-4-yloxy)phenyl)-N′-(4-fluorophenyl)cyclopropane-1,1-dicarboxamide, (2S)-hydroxybutanedioate] | 99.9 | 99.6 | 99.0 | 99.2 | 0.52 | 0.44 | 0.38 | 0.44 | 0.44 | ≥ 99.7 | inhibits | 0.75 | 
COc1cc2nccc(Oc3ccc(NC(=O)C4(C(=O)Nc5ccc(F)cc5)CC4)cc3)c2cc1OC.O=C(O)C[C@H](O)C(=O)O [Cabozantinib (S)-malate salt] |  |  |  |  |  |  |  |  |  |  |  |  | practically insoluble

— patent US12564584B2, “Amorphous cabozantinib particles and uses thereof” (Flex Pharma, LLC, priority 2020, dated 2026)
